30 compounds from patent US9593110B2, “Neprilysin inhibitors” (Theravence Biopharma R&D IP, LLC, priority 2014, dated 2017) can be followed below.

The target in this test is human NEP (Homo sapiens (Human), UniProt P08473). In words: In vitro enzyme inhibition assay at human NEP. To be noted: recombinant human NEP, fluorogenic peptide substrate, 37° C.; for Ki: pKi.
Chain of human NEP (P08473 52-750): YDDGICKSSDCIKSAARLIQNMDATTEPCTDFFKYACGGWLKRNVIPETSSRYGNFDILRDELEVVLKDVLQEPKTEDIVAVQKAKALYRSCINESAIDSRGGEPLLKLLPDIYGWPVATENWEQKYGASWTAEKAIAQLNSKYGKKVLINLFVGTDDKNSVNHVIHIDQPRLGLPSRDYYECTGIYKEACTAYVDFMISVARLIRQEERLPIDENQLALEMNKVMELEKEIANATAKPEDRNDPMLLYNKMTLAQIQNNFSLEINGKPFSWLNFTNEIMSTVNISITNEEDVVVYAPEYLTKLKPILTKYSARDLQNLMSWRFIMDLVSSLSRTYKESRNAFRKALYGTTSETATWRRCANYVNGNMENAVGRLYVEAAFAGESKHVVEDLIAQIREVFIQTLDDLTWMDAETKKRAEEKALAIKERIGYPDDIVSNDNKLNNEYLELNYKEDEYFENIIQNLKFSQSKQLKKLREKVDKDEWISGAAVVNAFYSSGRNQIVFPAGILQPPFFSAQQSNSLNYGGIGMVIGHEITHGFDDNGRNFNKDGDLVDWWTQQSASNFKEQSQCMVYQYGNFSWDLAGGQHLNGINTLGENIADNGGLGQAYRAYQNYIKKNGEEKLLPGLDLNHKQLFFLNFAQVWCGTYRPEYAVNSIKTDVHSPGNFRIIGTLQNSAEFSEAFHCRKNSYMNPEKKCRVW

Protocol: The inhibitory activities of compounds at human and rat neprilysin (EC 3.4.24.11; NEP) and human angiotensin converting enzyme (ACE) were determined using in vitro assays as described below.
The assays were performed in 384-well white opaque plates at 37° C. using the fluorogenic peptide substrates at a concentration of 10 μM in Assay Buffer (NEP: 50 mM HEPES, pH 7.5, 100 mM NaCl, 0.01% polyethylene glycol sorbitan monolaurate (Tween-20), 10 μM ZnSO4; ACE: 50 mM HEPES, pH 7.5, 100 mM NaCl, 0.01% Tween-20, 1 μM ZnSO4).
Test compounds were assayed over the range of concentrations from 10 μM to 20 pM. Test compounds were added to the enzymes and incubated for 30 minute at 37° C. prior to initiating the reaction by the addition of substrate.
Plates were read on a fluorometer with excitation and emission wavelengths set to 320 nm and 405 nm, respectively Inhibition constants were obtained by nonlinear regression of the data using the equation (GraphPad Software, Inc., San Diego, Calif.): v=v0/[1+(I/K′)] where v is the reaction rate, v0 is the uninhibited reaction rate, I is the inhibitor concentration and K′ is the apparent inhibition constant.

In the case of `COCc1cc(C(=O)N[C@H](Cc2ccc(-c3cc(Cl)ccc3F)cc2Cl)C[C@H](N)C(=O)O)no1` [Example 18-8, (2S,4R)-2-Amino-5-(3,5′-dichloro-2′-fluorobiphenyl-4-yl)-4-[(5-methoxymethylisoxazole-3-carbonyl)amino]pentanoic acid], the pKi result is reported as “≧9.0”. Take `N[C@H](C[C@@H](Cc1ccc(-c2cc(Cl)ccc2F)cc1Cl)NC(=O)c1cc(C2CC2)on1)C(=O)O` [Example 18-9, (2R,4R)-2-Amino-4-[(5-cyclopropyl-isoxazole-3-carbonyl)-amino]-5-(3,5′-dichloro-2′-fluorobiphenyl-4-yl)pentanoic acid]: the Ki (commonly the dissociation constant of the complex between target and ligand, obtained from inhibition or displacement) lay within 3.16 to 10 nM. `N[C@@H](C[C@@H](Cc1ccc(-c2cc(Cl)ccc2F)cc1Cl)NC(=O)c1cc(C2CC2)on1)C(=O)O` [Example 18-10, (2S,4R)-2-Amino-4-[(5-cyclopropyl-isoxazole-3-carbonyl)-amino]-5-(3,5′-dichloro-2′-fluorobiphenyl-4-yl)pentanoic acid]: the pKi result is “≧9.0”. Consider `COc1cnc(C(=O)N[C@H](Cc2ccc(-c3cc(Cl)ccc3F)cc2Cl)C[C@@H](N)C(=O)O)o1` [Example 18-11, (2R,4R)-2-Amino-5-(3,5′-dichloro-2′-fluoro-biphenyl-4-yl)-4-[(5-methoxyoxazole-2-carbonyl)amino]pentanoic acid], for which the pKi result is “≧9.0”. Regarding `COc1cnc(C(=O)N[C@H](Cc2ccc(-c3cc(Cl)ccc3F)cc2Cl)C[C@H](N)C(=O)O)o1` [Example 18-12, (2S,4R)-2-Amino-5-(3,5′-dichloro-2′-fluoro-biphenyl-4-yl)-4-[(5-methoxyoxazole-2-carbonyl)amino]pentanoic acid], the inhibitory constant (Ki) was in the range of 3.16 to 10 nM. Take `NC[C@H](C[C@@H](Cc1ccc(-c2cc(Cl)ccc2F)cc1)NC(=O)c1c[nH]nn1)C(=O)O` [Example 20, (2S,4S)-2-Aminomethyl-5-(5′-chloro-2′-fluorobiphenyl-4-yl)-4-[(1H-[1,2,3]triazole-4-carbonyl)amino]pentanoic Acid]: the pKi entry is listed as “≧9.0”.

With `NC[C@H](C[C@@H](Cc1ccc(-c2cc(Cl)ccc2F)cc1)NC(=O)c1coc(C2CC2)n1)C(=O)O` [Example 21-2, (2S,4S)-2-Aminomethyl-5-(5′-chloro-2′-fluorobiphenyl-4-yl)-4-[(2-cyclopropyl-oxazole-4-carbonyl)amino]pentanoic acid], the Ki was in the range of 1.26 to 3.16 nM. In the case of `Cc1cnc(C(=O)N[C@H](Cc2ccc(-c3cc(Cl)ccc3F)cc2)C[C@@H](CN)C(=O)O)o1` [Example 21-3, (2S,4S)-2-Aminomethyl-5-(5′-chloro-2′-fluorobiphenyl-4-yl)-4-[(5-methyl-oxazole-2-carbonyl)amino]pentanoic acid], the pKi entry is “≧9.0”.

As to `CCOc1nc(C(=O)N[C@H](Cc2ccc(-c3cc(Cl)ccc3F)cc2)C[C@@H](CN)C(=O)O)co1` [Example 21-4, (2S,4S)-2-Aminomethyl-5-(5′-chloro-2′-fluorobiphenyl-4-yl)-4-[(2-ethoxy-oxazole-4-carbonyl)amino]pentanoic acid], the Ki lay within 1.26 to 3.16 nM.

For the compound `Cc1nc(C(=O)N[C@H](Cc2ccc(-c3cc(Cl)ccc3F)cc2)C[C@@H](CN)C(=O)O)co1` [Example 21-5, (2S,4S)-2-Aminomethyl-5-(5′-chloro-2′-fluorobiphenyl-4-yl)-4-[(2-methyloxazole-4-carbonyl)amino]pentanoic acid], the Ki was in the range of 1.26 to 3.16 nM. For `Cc1cc(C(=O)N[C@H](Cc2ccc(-c3cc(Cl)ccc3F)cc2)C[C@@H](CN)C(=O)O)sn1` [Example 21-6, (2S,4S)-2-Aminomethyl-5-(5′-chloro-2′-fluorobiphenyl-4-yl)-4-[(3-methylisothiazole-5-carbonyl)amino]pentanoic acid], the inhibitory constant (Ki) is 1.26 to 3.16 nM. Consider `NC[C@H](C[C@@H](Cc1ccc(-c2cc(Cl)ccc2F)cc1)NC(=O)c1cnsc1)C(=O)O` [Example 21-7, (2S,4S)-2-Aminomethyl-5-(5′-chloro-2′-fluorobiphenyl-4-yl)-4-[(isothiazole-4-carbonyl)amino]pentanoic acid], for which the Ki was 1.26 to 3.16 nM.

Take `NC[C@H](C[C@@H](Cc1ccc(-c2ccccc2)cc1)NC(=O)c1c[nH]nn1)C(=O)O` [Example 22, (2S,4S)-2-Aminomethyl-5-biphenyl-4-yl-4-[(1H-[1,2,3]triazole-4-carbonyl)amino]pentanoic Acid]: the Ki was in the range of 1.26 to 3.16 nM. Same read-out and setting: as for `Cc1cnc(C(=O)N[C@H](Cc2ccc(-c3cc(Cl)ccc3F)cc2)C[C@@H](CCN)C(=O)O)o1` [Example 23, (2R,4S)-2-(2-Aminoethyl)-5-(5′-chloro-2′-fluorobiphenyl-4-yl)-4-[(5-methyloxazole-2-carbonyl)amino]pentanoic Acid], the figure is 1.26 to 3.16 nM; as for `CC(C)c1coc(C(=O)N[C@H](Cc2ccc(-c3cc(Cl)ccc3F)cc2)C[C@@H](CCN)C(=O)O)n1` [Example 24-1, (2R,4S)-2-(2-Aminoethyl)-5-(5′-chloro-2′-fluorobiphenyl-4-yl)-4-[(4-isopropyloxazole-2-carbonyl)amino]pentanoic acid], 3.16 to 10 nM; as for `NCC[C@H](C[C@@H](Cc1ccc(-c2cc(Cl)ccc2F)cc1)NC(=O)c1cnn[nH]1)C(=O)O` [Example 24-2, (2R,4S)-2-(2-Aminoethyl)-5-(5′-chloro-2′-fluorobiphenyl-4-yl)-4-[(3H-[1,2,3]triazole-4-carbonyl)amino]pentanoic acid], 1.26 to 3.16 nM. On to `CC(=O)N[C@H](C[C@@H](Cc1ccc(-c2ccccc2F)cc1)NC(=O)c1c[nH]nn1)C(=O)O` [Example 25, (2R,4R)-2-Acetylamino-5-(2′-fluorobiphenyl-4-yl)-4-[(1H-[1,2,3]triazole-4-carbonyl)amino]pentanoic Acid], for which the Ki fell in the range of 3.16 to 10 nM.

In the case of `CC(=O)N[C@H](C[C@@H](Cc1ccc(-c2ccccc2)cc1)NC(=O)c1c[nH]nn1)C(=O)O` [Example 26, (2R,4R)-2-Acetylamino-5-biphenyl-4-yl-4-[(1H-[1,2,3]triazole-4-carbonyl)amino]pentanoic Acid], the inhibition constant Ki was 3.16 to 10 nM.

Consider `CCC(=O)N[C@H](C[C@@H](Cc1ccc(-c2ccccc2)cc1)NC(=O)c1c[nH]nn1)C(=O)O` [Example 27, (2R,4R)-5-Biphenyl-4-yl-2-propionylamino-4-[(1H-[1,2,3]triazole-4-carbonyl)amino]pentanoic Acid], for which the Ki fell in the range of 3.16 to 10 nM. As to `CC(=O)NC[C@H](C[C@@H](Cc1ccc(-c2cc(Cl)ccc2F)cc1)NC(=O)c1c[nH]nn1)C(=O)O` [Example 28, (2S,4S)-2-(Acetylaminomethyl)-5-(5′-chloro-2′-fluoro-biphenyl-4-yl)-4-[(1H-[1,2,3]triazole-4-carbonyl)amino]pentanoic Acid], the pKi entry is given as “≧9.0”. For `COC(=O)N[C@H](C[C@@H](Cc1ccc(-c2cc(Cl)ccc2F)cc1)NC(=O)c1c[nH]nn1)C(=O)O` [Example 30-1, (2R,4R)-5-(5′-Chloro-2′-fluoro-biphenyl-4-yl)-2-methoxycarbonylamino-4-[(1H-[1,2,3]triazole-4-carbonyl)amino]pentanoic acid], the pKi result was “≧9.0”. Still for that read-out and setting: as for `COC(=O)N[C@H](C[C@@H](Cc1ccc(-c2cc(Cl)ccc2F)cc1)NC(=O)c1cc(C(C)=O)n[nH]1)C(=O)O` [Example 30-2, (2R,4R)-4-[(5-Acetyl-2H-pyrazole-3-carbonyl)-amino]-5-(5′-chloro-2′-fluoro-biphenyl-4-yl)-2-methoxycarbonylaminopentanoic acid], the entry is “≧9.0”; as for `COC(=O)N[C@H](C[C@@H](Cc1ccc(-c2cc(Cl)ccc2F)cc1)NC(=O)c1ncco1)C(=O)O` [Example 30-3, (2R,4R)-5-(5′-Chloro-2′-fluoro-biphenyl-4-yl)-2-methoxycarbonylamino-4-[(oxazole-2-carbonyl)amino]pentanoic acid], “≧9.0”. For `COC(=O)N[C@H](C[C@@H](Cc1ccc(-c2cc(Cl)ccc2F)cc1)NC(=O)c1coc(C2CC2)n1)C(=O)O` [Example 30-5, (2R,4R)-5-(5′-Chloro-2′-fluorobiphenyl-4-yl)-4-[(2-cyclopropyl-oxazole-4-carbonyl)amino]-2-methoxycarbonylaminopentanoic acid], the pKi result is “≧9.0”. As for `CCOc1nc(C(=O)N[C@H](Cc2ccc(-c3cc(Cl)ccc3F)cc2)C[C@@H](NC(=O)OC)C(=O)O)co1` [Example 30-7, (2R,4R)-5-(5′-Chloro-2′-fluorobiphenyl-4-yl)-4-[(2-ethoxy-oxazole-4-carbonyl)amino]-2-methoxycarbonylaminopentanoic acid], the pKi result is “≧9.0”. As for `CCOc1oc(C(=O)N[C@H](Cc2ccc(-c3cc(Cl)ccc3F)cc2)C[C@@H](NC(=O)OC)C(=O)O)nc1C` [Example 30-8, (2R,4R)-5-(5′-Chloro-2′-fluorobiphenyl-4-yl)-4-[(5-ethoxy-4-methyl-oxazole-2-carbonyl)amino]-2-methoxycarbonylaminopentanoic acid], the Ki was 1.26 to 3.16 nM. Regarding `COC(=O)N[C@H](C[C@@H](Cc1ccc(-c2cc(Cl)ccc2F)cc1)NC(=O)c1noc(=O)[nH]1)C(=O)O` [Example 30-9, (2R,4R)-5-(5′-Chloro-2′-fluorobiphenyl-4-yl)-2-methoxycarbonylamino-4-[(5-oxo-4,5-dihydro-[1,2,4]oxadiazole-3-carbonyl)amino]pentanoic acid], the pKi result is “≧9.0”.

`COC(=O)N[C@H](C[C@@H](Cc1ccc(-c2cc(Cl)ccc2F)cc1)NC(=O)c1c[nH]c(=O)o1)C(=O)O` [Example 30-10, (2R,4R)-5-(5′-Chloro-2′-fluorobiphenyl-4-yl)-2-methoxycarbonylamino-4-[(2-oxo-2,3-dihydro-oxazole-5-carbonyl)amino]pentanoic acid]: the pKi result is recorded as “≧9.0”. On the same count and under the same terms, as for `COC(=O)N[C@H](C[C@@H](Cc1ccc(-c2cc(Cl)ccc2F)cc1)NC(=O)c1coc(=O)[nH]1)C(=O)O` [Example 30-11, (2R,4R)-5-(5′-Chloro-2′-fluorobiphenyl-4-yl)-2-methoxycarbonylamino-4-[(2-oxo-2,3-dihydro-oxazole-4-carbonyl)amino]pentanoic acid], the entry is “≧9.0”.

For the compound `COC(=O)N[C@H](C[C@@H](Cc1ccc(-c2ccccc2)cc1)NC(=O)c1c[nH]nn1)C(=O)O` [Example 31, (2R,4R)-5-Biphenyl-4-yl-2-methoxycarbonylamino-4-[(1H-[1,2,3]triazole-4-carbonyl)amino]pentanoic Acid], the inhibition constant (Ki) lay within 1.26 to 3.16 nM.
